Experiments:
Jak2 kinase = biological target: T1, Jak2 kinase (Homo sapiens, UniProt O60674); assay: in vitro kinase assay on Jak2 immunoprecipitated from G2 cell lysate; assay type: biochemical; conditions: scanning autoradiographs of the kinase assays
T1 construct: Jak2 kinase was immunoprecipitated from a 1% Triton-X100 lysate of 10x10^6 G2 cells; endogenous in cells; host or cells: G2 pre-B leukemia cell line
Experimental: Compounds chosen on the basis of their ability to inhibit the growth (colony formation) of the pre-B leukemia cell line G2 were tested for inhibition of Jak2 kinase.
Jak2 kinase was immunoprecipitated from a 1% Triton-X100 lysate of 10x10^6 G2 cells. An in vitro kinase assay was performed on the immunoprecipitated Jak2 in the presence or absence of varying concentrations of the compounds AG 1977, AG 1978, AG 2009 and AG 2010.
Stock solutions of 100mM tyrphostin were made in 100% DMSO and further dilutions made in 10% DMSO. Control kinase assays carried out in the presence of DMSO concentrations of 5-30% alone were unaffected by its presence.
Initial experiments were done with tyrphostin concentrations of 0.1, 1.0 and 10µM. These concentrations had no affect on the kinase activity of Jak2. […]

G2 ALL cells = assay: clonogenic assay, inhibition of colony formation of ALL cell line G2; assay type: cell-based, human
Experimental: Inhibition of colony formation was studied by methods described previously (Kamel-Reid et al., (1992), Leukemia, v. 6, pp. 8-17; Meydan et al., (1996), Nature, v. 379, pp. 645-648).
ALL cell lines A1 (at 8x10^5 cells/ml), C1 (at 4x10^4 cells/ml) and G2 (at 1.15x10^6 cells/ml) were plated in 1 ml volumes, in the absence of exogenous growth factors, into 35 mm petri dishes (Nunc, Gibco) containing alpha MEM (Gibco) plus 10% FCS (Cansera Rexdale, Ont.) in 0.9% (vol/vol) methylcellulose (Fluka, Switzerland). Cultures were set up at 37°C with 5% CO2 in a humidified atmosphere and 10 uM of a selected tyrphostin was added. Colonies consisting of more than 20 cells were counted at 12 days (A1), 5 days (C1) and 14 days (G2) using an inverted microscope. Similar results were obtained with A1 and C1.
Various concentrations of tyrphostins were tested for inhibition of ALL cells in the clonogenic assay described in Example 2. Compounds AG 1977. 1978, 2007, 2008, 2009 and 2010 were tested against ALL cell lines A1, C1 and G2 in doses ranging from nanomolar to micromolar values.

normal bone marrow cells = assay: modified CFU-GEMM clonogenic assay on normal bone marrow cells; assay type: cell-based, human; conditions: 40µM
Experimental: Compounds showing inhibition of ALL colony formation were examined for their effect on normal bone marrow cells using a modified CFU-GEMM clonogenic assay.
The assay was performed according to Fauser and Messner (1978), Blood, v. 52, pp. 1243-8, and Messner and Fausser (1980), Blut, v. 41, pp. 327-333, with some variations. In brief, heparinized bone marrow cells were layered over Percoll (Pharmacia Fine Chemical. Piscataway N.J.) at a density of 1.077 gm/ml and centrifuged at 400 g at 4°C for 10 min. to remove neutrophils and RBCs. The fractionated bone marrow cells at 2x10^5 cells/ml were cultured in IMDM (OCI, Toronto) containing 0.9% (vol/vol) methylcellulose supplemented with 30% FCS (Cansera Rexdale, Ont.) or normal human plasma, a cocktail of cytokines consisting of G-CSF (10 ng/ml. Amgen), IL-3 (40 U/ml, Immunex), MGF (50 ng/ml, Immunex), Erythropoietin (2u/ml, Epprex) or TPO (10 ng/ml, Amgen) and 5x10^-5 2-mercaptoethanol. The culture mixture was plated in 1 ml volumes into 35 mm petri dishes and incubated at 37°C with 5% CO2 in a humidified atmosphere with concentrations of tyrphostin up to 40 µm.

T1 sequence (O60674 whole entry): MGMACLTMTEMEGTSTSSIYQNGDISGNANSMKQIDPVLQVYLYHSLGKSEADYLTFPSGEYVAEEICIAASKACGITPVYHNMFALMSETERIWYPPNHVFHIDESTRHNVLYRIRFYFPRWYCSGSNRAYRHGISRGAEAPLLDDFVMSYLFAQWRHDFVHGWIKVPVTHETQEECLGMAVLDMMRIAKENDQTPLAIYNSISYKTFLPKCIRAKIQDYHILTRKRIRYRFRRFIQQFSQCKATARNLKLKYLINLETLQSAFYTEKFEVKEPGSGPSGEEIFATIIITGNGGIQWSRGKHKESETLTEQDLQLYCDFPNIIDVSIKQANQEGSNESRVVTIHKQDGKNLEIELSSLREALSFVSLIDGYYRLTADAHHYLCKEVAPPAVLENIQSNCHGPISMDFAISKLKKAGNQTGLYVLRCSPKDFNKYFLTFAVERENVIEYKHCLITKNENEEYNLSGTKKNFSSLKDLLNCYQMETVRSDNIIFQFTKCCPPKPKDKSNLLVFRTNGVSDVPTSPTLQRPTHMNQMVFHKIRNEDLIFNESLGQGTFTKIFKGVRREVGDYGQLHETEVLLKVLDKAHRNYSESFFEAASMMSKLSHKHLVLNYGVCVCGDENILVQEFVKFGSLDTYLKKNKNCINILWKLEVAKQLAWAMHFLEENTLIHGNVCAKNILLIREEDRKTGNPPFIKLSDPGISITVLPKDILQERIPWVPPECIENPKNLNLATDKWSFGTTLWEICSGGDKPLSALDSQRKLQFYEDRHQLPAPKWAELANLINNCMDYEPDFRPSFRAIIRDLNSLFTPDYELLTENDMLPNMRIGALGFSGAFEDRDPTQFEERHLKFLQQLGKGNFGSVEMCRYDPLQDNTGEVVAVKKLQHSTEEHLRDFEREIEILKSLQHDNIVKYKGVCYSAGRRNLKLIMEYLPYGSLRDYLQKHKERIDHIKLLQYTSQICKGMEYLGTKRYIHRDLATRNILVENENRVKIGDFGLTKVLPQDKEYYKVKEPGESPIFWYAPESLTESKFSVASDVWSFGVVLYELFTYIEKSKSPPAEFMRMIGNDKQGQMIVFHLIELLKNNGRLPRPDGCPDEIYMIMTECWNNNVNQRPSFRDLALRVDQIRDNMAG

## N#C/C(=C\c1cc(O)c(O)c(CSCc2ccccc2)c1)C(=O)NCc1ccccc1 [AG 1977, N-benzyl-2-cyano-3-(3',4'-dihydroxy-5'-methylenethiobenzylphenyl) acrylamide]
Jak2 kinase; 5µM tyrphostin
  %inhibition of kinase activity: 23%
Jak2 kinase; 25µM tyrphostin
  %inhibition of kinase activity: 14%
Jak2 kinase; 50µM tyrphostin
  %inhibition of kinase activity: 15%

## N#C/C(=C\c1cc(O)c(O)c(CSc2ccccc2)c1)C(=O)NCc1ccccc1 [AG 1978, N-benzyl-2-cyano-3-(3',4-dihydroxy-5'-methylenethiophenylphenyl) acrylamide]
Jak2 kinase; 5µM tyrphostin
  %inhibition of kinase activity: 10%
Jak2 kinase; 25µM tyrphostin
  %inhibition of kinase activity: 13%
Jak2 kinase; 50µM tyrphostin
  %inhibition of kinase activity: 46%

## N#C/C(=C\c1cc(O)c(O)c(CSCCc2ccccc2)c1)C(=O)NCc1ccccc1 [AG 2009, N-benzyl-2-cyano-3-(3',4'-dihydroxy-5'-(methylenethioethylphenyl)phenyl) acrylamide]
Jak2 kinase; 5µM tyrphostin
  %inhibition of kinase activity: 0%
Jak2 kinase; 25µM tyrphostin
  %inhibition of kinase activity: 0%
Jak2 kinase; 50µM tyrphostin
  %inhibition of kinase activity: 8%
G2 ALL cells; Homo sapiens, dose of 16nM, G2 cells
  inhibition at 0.016 µM: > 50%
G2 ALL cells; against G2 cells, dose responsive (Fig. 13), compared with AG 1977, 1978, 2007, 2008, 2010
  clonogenic inhibition: most potent clonogenic inhibition
G2 ALL cells; survival curve of normal BM and G2 colonies (Fig. 14)
  differential therapeutic index: greater than 2 logs

## N#C/C(=C\c1cc(O)c(O)c(CSCCCc2ccccc2)c1)C(=O)NCc1ccccc1 [AG 2010, N-benzyl-2-cyano-3-(3',4'-dihydroxy-5'-(methylenethiopropylphenyl)phenyl) acrylamide]
Jak2 kinase; 5µM tyrphostin
  %inhibition of kinase activity: 5%
Jak2 kinase; 25µM tyrphostin
  %inhibition of kinase activity: 5%
Jak2 kinase; 50µM tyrphostin
  %inhibition of kinase activity: 39%
Normal bone marrow cells
  inhibition of normal bone marrow colonies: significant inhibition

From EP1161417B1, “METHODS AND COMPOSITIONS FOR TREATING LEUKEMIA” (HSC Research and Development Limited Partnership, priority 1999, dated 2000)
